Publication PMC7060200, “Selective Binding of HSC70 and its Co-Chaperones to Structural Hotspots on CFTR” (Scientific Reports, 2020)
Ends that are not written are not given here.

Key:
DJA2 [1] = molecular target: T1, DJA2 (Homo sapiens, UniProt O60884); assay: Competition ELISA: soluble peptide vs DJA2 binding to immobilized 1097-L
T1 construct: made in house
Method: (§1) HSC70, DJA1 and DJA2 were purified as His-tagged proteins, as described. HSC70 was also amplified by PCR with an N-terminal FLAG tag, inserted into pPROEXHTa (Invitrogen) and purified as described. HSC70 was stored in 100 mM KOAc, 20 mM HEPES-KOH pH 7.5, 5 mM MgOAC2 (buffer G), DJA1 and DJA2 in 500 mM NaCl, 20 mM HEPES-KOH pH 7.5, 5 mM MgOAC2 (buffer H). Avi-tagged CFTR NBD1 was purified as described.
(§2) The CFTR peptide library was designed as 15-mers with 10-residue overlaps covering the cytosolic sequences as in Fig. 1a and Supplemental Table S1. Synthetic peptides (Mimotopes, PepSet purity) contained an N-terminal biotin followed by linker sequence GSGS and the 15-mer sequence. […] Peptides were reconstituted in DMSO or water.
(§3) For peptide binding, streptavidin-coated black 96-well plates (Nunc Maxisorp, ThermoFisher) were pre-rinsed with PBS containing 0.05% Tween-20 (PBST), and 5 µM biotinylated peptides in 100 µl PBS were bound overnnight at 4 °C with agitation. Plates were washed with PBST and blocked with PBST containing 0.5% bovine serum albumin (BSA) for 1 h. After removal of blocking solution, 100 µl reactions containing chaperones at indicated concentrations were bound for 45 min at room temperature with agitation. HSC70 reactions were in buffer G containing 1 mM ATP, DJA1 and DJA2 reactions were in buffer H. For competition assays, chaperones and peptides were mixed at indicated concentrations immediately before the reactions were added to the plates. For detections, the plates were washed in PBST and 5 μM His-Probe-HRP conjugate (ThermoFisher) in 100 μL PBST added for 15 min with agitation. After washing in PBST, plates were developed using Amplex Red (ThermoFisher) according to manufacturer’s instructions, in a fluorescence plate reader (Tecan M1000).
(§4) Affinities were determined separately from binding curves and from competition curves. Data from binding of chaperones to immobilized peptides (Fig. 2a,b and Supplemental Fig. S2a–c) were fit to the equation 1/(1 − i) = (C/i)/Kd^B − b, where i is the relative saturation, C is the chaperone concentration (1 μM), Kd^B is the apparent dissociation constant from the binding data. In the plot of 1/(1 − i) against (C/i), the slope is 1/Kd^B, and −b is the intercept. […] In the plot of bi + (C/Kd^B)/i over D, the slope is 1/Kd^C, and e is the intercept. The amount of chaperone bound in the absence of competitor was set as i = 1.
(§5) Established statistical methods[71]–[73] were used to analyze the data for chaperone binding to the peptide library. First, biological and statistical outliers were identified with the Tukey method in two rounds, for biological and then statistical outliers. […] Binding data were represented as multiples of the standard deviations from the normal means. Binding in the presence of competitor peptides were shown as a fraction of binding in the absence of competitor, or the fraction competed calculated as 1 – fraction bound. Values were compared using a two-tailed unpaired Student’s t-test assuming unequal variance.

DJA2 [2] = molecular target: T1, DJA2; assay: Fluorescent peptide binding, DJA2; settings: 0.5 μM FAM-1092-S, buffer H, 45 min, ex 492 nm / em 520 nm, one site total binding fit, n ≥ 8
Description: (§6) The CFTR peptide library was designed as 15-mers with 10-residue overlaps covering the cytosolic sequences as in Fig. 1a and Supplemental Table S1. Synthetic peptides (Mimotopes, PepSet purity) contained an N-terminal biotin followed by linker sequence GSGS and the 15-mer sequence. Soluble peptides (Lifetein) were synthesized unmodified at >85% purity, sequences in Supplemental Table S1 and S2. Fluorescent peptide 1092-S was fused to the linker sequence SG and an N-terminal 6-carboxyfluorescein (FAM) label. Peptides were reconstituted in DMSO or water.
(§7) 0.5 μM FAM-1092-S was incubated with chaperones at the indicated concentrations for 45 min. HSC70 was incubated in buffer G, DJA1 and DJA2 were incubated in buffer H. The fluorescence signal for each condition was measured at 492 nm wavelength excitation, 520 nm wavelength emission, and 5 nm slit width, using a Horiba FluoroMax spectrofluorometer. Data were collected with the FluorEssence software (Horiba). Dissociation constants (Kd) were determined by nonlinear regression fit of the averaged data to a one site – total binding model, using GraphPad Prism 8. The 95% confidence intervals and R^2 correlation coefficients are reported (Supplemental Table S3).

HSC70 [3] = molecular target: T2, HSC70 (Homo sapiens, UniProt P11142); assay: ELISA binding of HSC70 to immobilized CFTR NBD1 and competition by soluble peptides; settings: 1 μM HSC70, with ATP, soluble peptide, Fig. 4a; n = 5
T2 construct: made in house
Method: as §1
For NBD1 binding, 100 nM of strep-tagged NBD1 in 100 µl of 150 mM NaCl, 50 mM Na2HPO4 pH 7.5, 1 mM ATP, and 40 µM DTT (buffer N), was bound to streptavidin plates for 1 hour at 4 °C with agitation. Plates were washed with PBST and incubated in buffer N at 30 °C in a water bath for 5 min. Then, plates were blocked in PBST containing 0.5% BSA, followed by the addition of HSC70 binding reactions, and detection as above.

HSC70 [4] = molecular target: T2, HSC70; assay: Fluorescent peptide binding, HSC70; settings: 0.5 μM FAM-1092-S, buffer G, 45 min, ex 492 nm / em 520 nm, one site total binding fit, n ≥ 8
Description: as §6, §7

DJA1 [5] = molecular target: T3, DJA1 (Homo sapiens, UniProt P31689); assay: Fluorescent peptide binding, DJA1; settings: 0.5 μM FAM-1092-S, buffer H, 45 min, ex 492 nm / em 520 nm, one site total binding fit, n ≥ 8
T3 construct: made in house
Description: as §6, §7

HSC70 and DJA2 = assay: Refolding of guanidine denatured luciferase by HSC70 and DJA2; type: biochemical; settings: 4 μM each HSC70 and DJA2, 100 nM luciferase, 100 μM peptide (25-fold excess), 60 min, % of control without peptide; n = 3
Method: Refolding of guanidine denatured luciferase with HSC70 and DJA2 was as described. […] To monitor refolding, luciferase activity was measured in a luminometer (Berthold Sirius) with the luciferase assay kit (Promega). For co-IPs, 20 μL reaction aliquots were stopped by dilution at 4 °C to 500 μL with buffer containing 0.1% Triton X-100, 0.2% BSA and 0.04 mg/mL apyrase (Sigma). Reactions were incubated with FLAG-M2 magnetic beads (Sigma) for 1 h at 4 °C with agitation, then beads were isolated and washed with buffer G containing 0.1% Triton X-100, and eluted with 40 μL of 1 μg/mL FLAG peptide in the same buffer. Samples were analyzed on Western blots detected with antibodies against luciferase (Sigma, L2164) and the FLAG-M2 tag (Sigma, F1804).

DJA1 [6] = molecular target: T3, DJA1; assay: Competition ELISA: soluble peptide vs DJA1 binding to immobilized 1097-L
Method: as §1, §2, §3, §4, §5

HSC70 [7] = molecular target: T2, HSC70; assay: Competition ELISA: soluble peptide vs HSC70 binding to immobilized 1097-L
Method: as §1, §2, §3, §4, §5

HSC70 [8] = molecular target: T2, HSC70; assay: ELISA binding of HSC70 to immobilized biotinylated CFTR peptides
Method: as §1, §2, §3, §4, §5

DJA1 [9] = molecular target: T3, DJA1; assay: ELISA binding of DJA1 to immobilized biotinylated CFTR peptides; settings: 2 μM DJA1, absence of ATP, immobilized 15-mer; n ≥ 3
Method: as §1, §2, §3, §4, §5

DJA2 [10] = molecular target: T1, DJA2; assay: ELISA binding of DJA2 to immobilized biotinylated CFTR peptides; settings: 2 μM DJA2, absence of ATP, immobilized 15-mer; n ≥ 3
Method: as §1, §2, §3, §4, §5

Flag-tagged HSC70 = assay: Co-immunoprecipitation of luciferase with Flag-tagged HSC70 during refolding; type: biochemical; settings: refolding reactions stopped at 0 or 15 min, FLAG IP, Western blot, Fig. 4d
Method: as §1
Refolding of guanidine denatured luciferase with HSC70 and DJA2 was as described. 100 µl reactions contained 4 μM each of HSC70 and DJA2, 2 mM ATP and […] in buffer G, with the indicated concentrations of peptides. To monitor refolding, luciferase activity was measured in a luminometer (Berthold Sirius) with the luciferase assay kit (Promega). For co-IPs, 20 μL reaction aliquots were stopped by dilution at 4 °C to 500 μL with buffer containing 0.1% Triton X-100, 0.2% BSA and 0.04 mg/mL apyrase (Sigma). Reactions were incubated with FLAG-M2 magnetic beads (Sigma) for 1 h at 4 °C with agitation, then beads were isolated and washed with buffer G containing 0.1% Triton X-100, and eluted with 40 μL of 1 μg/mL FLAG peptide in the same buffer. Samples were analyzed on Western blots detected with antibodies against luciferase (Sigma, L2164) and the FLAG-M2 tag (Sigma, F1804).

T1 sequence (O60884 whole entry): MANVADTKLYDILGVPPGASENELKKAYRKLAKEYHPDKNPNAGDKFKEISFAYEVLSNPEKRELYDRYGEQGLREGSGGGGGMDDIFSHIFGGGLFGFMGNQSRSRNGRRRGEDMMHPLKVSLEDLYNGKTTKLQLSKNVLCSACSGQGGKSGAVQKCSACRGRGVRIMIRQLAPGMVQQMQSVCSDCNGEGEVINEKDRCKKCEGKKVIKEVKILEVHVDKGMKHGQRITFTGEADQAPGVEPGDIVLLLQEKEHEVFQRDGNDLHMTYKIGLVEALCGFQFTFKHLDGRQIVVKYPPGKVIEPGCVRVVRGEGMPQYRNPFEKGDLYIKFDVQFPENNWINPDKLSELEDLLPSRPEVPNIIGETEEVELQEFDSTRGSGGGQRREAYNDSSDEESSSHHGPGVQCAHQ
T2 sequence (P11142 whole entry): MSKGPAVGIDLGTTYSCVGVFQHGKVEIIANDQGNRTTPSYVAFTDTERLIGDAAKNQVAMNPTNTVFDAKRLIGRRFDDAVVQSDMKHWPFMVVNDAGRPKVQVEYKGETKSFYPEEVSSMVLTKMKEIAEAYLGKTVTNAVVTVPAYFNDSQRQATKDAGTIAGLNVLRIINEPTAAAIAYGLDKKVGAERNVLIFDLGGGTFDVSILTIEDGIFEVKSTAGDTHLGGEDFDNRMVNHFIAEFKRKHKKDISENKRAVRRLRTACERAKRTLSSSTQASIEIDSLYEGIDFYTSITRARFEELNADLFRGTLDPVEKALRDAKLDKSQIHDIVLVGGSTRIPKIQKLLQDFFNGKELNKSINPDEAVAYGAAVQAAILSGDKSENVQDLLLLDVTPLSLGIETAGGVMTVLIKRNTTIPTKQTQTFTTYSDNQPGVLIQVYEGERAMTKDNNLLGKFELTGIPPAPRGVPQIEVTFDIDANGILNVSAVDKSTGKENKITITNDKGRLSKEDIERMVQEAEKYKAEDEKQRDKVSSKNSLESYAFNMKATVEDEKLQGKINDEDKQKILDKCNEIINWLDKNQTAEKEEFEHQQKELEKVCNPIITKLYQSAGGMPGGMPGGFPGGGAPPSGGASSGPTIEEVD

Substance | Kd (DJA2 [1]) | competition of DJA2 binding to immobilized 1097-L (in words) (DJA2 [1]; 1 μM DJA2, soluble peptide up to 100 μM) | Kd from fluorescence binding, DJA2 (DJA2 [2]) | Kd (DJA2 [2]; read-out: Kd from fluorescence binding, DJA2) | competition of HSC70 binding to immobilized NBD1 (in words) (HSC70 [3]) | Kd from fluorescence binding, HSC70 (HSC70 [4]) | Kd (HSC70 [4]; read-out: Kd from fluorescence binding, HSC70) | Kd from fluorescence binding, DJA1 (DJA1 [5]) | Kd (DJA1 [5]; read-out: Kd from fluorescence binding, DJA1) | effect on luciferase refolding (in words) (HSC70 and DJA2) | DJA1 binding site by competition screen (in words) (DJA1 [6]; 1 μM DJA1, 100 μM soluble peptide, Fig. 3c/5, cutoff twice SD of 733-L, n ≥ 4) | competition of DJA1 binding to immobilized 1097-L (in words) (DJA1 [6]; 1 μM DJA1, soluble peptide up to 100 μM) | Kd (DJA1 [6]; read-out: Kd from competition curves, DJA1) | competition of HSC70 binding to immobilized 1097-L (in words) (HSC70 [7]; 1 μM HSC70, soluble peptide up to 100 μM) | Kd (HSC70 [7]; read-out: Kd from competition curves, HSC70) | binding in peptide library screen, HSC70 (in words) (HSC70 [8]; 2 μM HSC70, with ATP, immobilized 15-mer, n ≥ 3) | titration binding / saturation, HSC70 (in words) (HSC70 [8]; HSC70 titrated to 1.5 μM on immobilized peptide, Fig. 2a, S2a, n ≥ 6) | binding in peptide library screen, DJA1 (in words) (DJA1 [9]) | binding in peptide library screen, DJA2 (in words) (DJA2 [10]) | luciferase bound to HSC70 in presence of peptide (in words) (Flag-tagged HSC70)
NWFLYLSTL [Peptide 1092-S] | 2.63 µM | competed all three chaperones | single micromolar range | 8.46 µM | effective competitors | single micromolar range | 6.17 µM | single micromolar range | 3.97 µM | inhibited refolding | one of the few sites also bound by DJA1 | competed all three chaperones | 5.47 µM | competed all three chaperones | 1.26 µM |  |  |  |  | 
733-L: R 15-mer 726-740, negative control (EDSDEPLERRLSLVP; UniProt P13569 726-740, looked up, fragment) [Peptide 733-L] |  |  |  |  | did not |  |  |  |  | no effect |  |  |  |  |  | low binding | low | low binding | low binding | luciferase was substantially bound
